COc1ccc(C=O)cc1O
solubility (mole fraction)
Conditions | in ethanol | in ethyl acetate | in formic acid | in isobutanol | in isobutyl acetate | in isopropanol | in methanol | in methyl acetate | in n-butanol | in n-propanol
278.15 K | 0.0125 | 0.0203 | 0.0432 | 0.0086 | 0.015 | 0.0072 | 0.0156 | 0.0382 | 0.012 | 0.0186
283.15 K | 0.0153 | 0.0246 | 0.0486 | 0.0098 | 0.0165 | 0.0092 | 0.0188 | 0.0425 | 0.0149 | 0.0209
288.15 K | 0.0184 | 0.029 | 0.0571 | 0.0161 | 0.0184 | 0.0118 | 0.0231 | 0.0536 | 0.017 | 0.0242
293.15 K | 0.0227 | 0.0342 | 0.068 | 0.0192 | 0.0216 | 0.0149 | 0.0291 | 0.0633 | 0.0219 | 0.0284
298.15 K | 0.0279 | 0.0401 | 0.0832 | 0.0223 | 0.025 | 0.0186 | 0.0362 | 0.074 | 0.0253 | 0.0331
303.15 K | 0.0338 | 0.0478 | 0.101 | 0.0271 | 0.0305 | 0.0259 | 0.0445 | 0.0866 | 0.0352 | 0.04
308.15 K | 0.0429 | 0.0559 | 0.115 | 0.0338 | 0.034 | 0.0296 | 0.059 | 0.104 | 0.0445 | 0.0455
313.15 K | 0.0547 | 0.0655 | 0.137 | 0.042 | 0.0408 | 0.0386 | 0.0836 | 0.121 | 0.0542 | 0.0582
318.15 K | 0.0695 | 0.0806 | 0.165 | 0.0499 | 0.0509 | 0.0576 | 0.134 | 0.147 | 0.0641 | 0.0751

From BigSolDB 2.1
